Measured values published in publication PMC7251097, “Aspartate/asparagine-β-hydroxylase: a high-throughput mass spectrometric assay for discovery of small molecule inhibitors” (Scientific Reports, 2020).
Read-outs that look alike come from different tables or passages of the source.

Biological target: T1, His6-AspH315–758 (human aspartate/asparagine-β-hydroxylase, AspH) (Homo sapiens, UniProt Q12797)
T1 construct: N-Terminally His6-tagged human AspH315–758 (His6-AspH315–758) was produced in E. coli BL21 (DE3) cells; made in house; host or cells: E. coli BL21 (DE3), pET-28a(+) vector
T1 sequence (Q12797 315-758): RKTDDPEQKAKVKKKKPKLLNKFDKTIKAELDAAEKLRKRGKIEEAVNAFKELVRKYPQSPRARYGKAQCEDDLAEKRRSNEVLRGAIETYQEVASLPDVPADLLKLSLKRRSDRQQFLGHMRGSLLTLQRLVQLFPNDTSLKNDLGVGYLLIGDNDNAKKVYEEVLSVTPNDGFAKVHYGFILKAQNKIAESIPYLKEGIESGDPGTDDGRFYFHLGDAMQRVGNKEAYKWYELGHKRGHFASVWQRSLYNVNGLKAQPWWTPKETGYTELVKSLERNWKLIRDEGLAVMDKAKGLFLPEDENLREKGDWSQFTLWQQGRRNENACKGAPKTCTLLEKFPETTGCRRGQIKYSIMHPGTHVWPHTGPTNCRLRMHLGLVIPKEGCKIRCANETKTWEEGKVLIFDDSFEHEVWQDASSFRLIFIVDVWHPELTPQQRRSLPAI
Test: SPE-MS AspH inhibition assay (LOPAC screen at fixed 20 μM and IC50 dose-response), hydroxylation of cyclic peptide hFX-CP101–119
Assay type: biochemical

[1] = LOPAC compound at fixed 20 uM, plate 1, normalised to DMSO and 2,4-PDCA controls
[2] = LOPAC compound at fixed 20 uM, substrate conversion, plate 1
[3] = LOPAC compound at 20uM, plate 3, conversion of substrate peptide
[4] = LOPAC Plate 4, compound at 20 uM, substrate conversion
[5] = LOPAC compound at 20uM, plate 2, conversion of substrate peptide
[6] = LOPAC compound at 20uM, plate 2, normalised to DMSO and 2,4-PDCA controls
[7] = AspH activity, fixed compound concentration 20 μM, initial LOPAC screen, 0.5%v/v DMSO

C=CCn1c(=O)c2c(nc(-c3ccc(S(=O)(=O)O)cc3)n2C)n(C)c1=O
Plate 1 (% inhibition) [1]: -6.98%
Plate 1 (% conversion) [2]: 38.22%

Cl.NC1(C(=O)O)CCCCC1
Plate 1 (% inhibition) [1]: 1.04%
Plate 1 (% conversion) [2]: 35.52%

Cl.NC1(C(=O)O)CC1
Plate 1 (% inhibition) [1]: -3.97%

Clc1ccc(C(c2ccccc2Cl)C(Cl)Cl)cc1 (centres unmarked)
Plate 1 (% inhibition) [1]: -5.18%
Plate 1 (% conversion) [2]: 37.61%

COc1ccccc1N1CCNCC1.Cl
% conversion: 37.50%
% inhibition (20 µM): -3.01%

COc1ccc2c(c1)c(CC(=O)O)c(C)n2Cc1ccc(Cl)cc1
Plate 1 (% inhibition) [1]: 5.27%
Plate 1 (% conversion) [2]: 34.10%

CC1CNCCN1S(=O)(=O)c1cccc2cnccc12.Cl.Cl (centres unmarked)
Plate 3 (% conversion) [3]: 5.68%

C[N+]1(C)CCN(c2ccccc2)CC1.[I-]
Plate 2 (% conversion): 36.09%
Plate 2 (% inhibition) (20 µM): -0.39%

CSc1nc(N)c2ncn([C@@H]3O[C@H](COP(=O)([O-])OP(=O)([O-])OP(=O)([O-])[O-])[C@@H](O)[C@H]3O)c2n1.[Na+].[Na+].[Na+].[Na+]
Plate 1 (% inhibition) [1]: 63.66%
Plate 1 (% conversion) [2]: 14.49%

Br.Br.N=C(N)SCCN
Plate 1 (% inhibition) [1]: -13.77%
Plate 1 (% conversion) [2]: 40.50%

CSc1nc(N)c2ncn([C@@H]3O[C@H](COP(=O)([O-])OP(=O)([O-])[O-])[C@@H](O)[C@H]3O)c2n1.O.[Na+].[Na+].[Na+]
Plate 1 (% inhibition) [1]: 16.28%
Plate 1 (% conversion) [2]: 30.40%

CN1C2CCC1CC(OC(=O)c1c[nH]c3ccccc13)C2.Cl (centres unmarked)
% conversion: 31.98%

C[N+]1(C)C2CCC1CC(OC(=O)c1c[nH]c3ccccc13)C2.[I-] (centres unmarked)
% conversion [4]: 36.85%

C[C@]12CC[C@@H](O)C[C@@H]1CC[C@@H]1[C@@H]2CC[C@]2(C)[C@@H](C(=O)CO)CC[C@@H]12
Plate 3 (% conversion): 42.66%

Cl.N=C(N)c1ccc(CS(=O)(=O)F)cc1
Plate 3 (% conversion): 34.27%

Cl.NCCc1ccc(S(=O)(=O)F)cc1
Plate 1 (% conversion): 34.69%
Plate 1 (% inhibition): 3.52%

COc1ccc2[nH]c3c(c2c1)CCNC3
Plate 1 (% conversion): 36.98%
Plate 1 (% inhibition) [1]: -3.29%

Cc1cccc(C#Cc2ccccc2)n1.Cl
Plate 3 (% conversion): 40.82%

Oc1cc(-c2ccccc2)nc2nc(Cl)ccc12
Plate 1 (% conversion): 39.07%
Plate 1 (% inhibition): -9.52%

Nc1ncnc2c1c(-c1ccc(Oc3ccccc3)cc1)cn2C1CCCC1
Plate 2 (% conversion) [5]: 45.34%
Plate 2 (% inhibition) [6]: -28.02%

COCc1nc2c([nH]1)c(=O)n(C)c(=O)n2CC(C)C
Plate 3 (% conversion) [3]: 35.26%

Cl.Nc1c2c(nc3ccccc13)CCCC2
Plate 1 (% conversion): 23.39%

C[C@H]1CCC/C=C/[C@@H]2C[C@H](O)C[C@H]2[C@H](O)/C=C/C(=O)O1
Plate 1 (% conversion): 38.82%
Plate 1 (% inhibition): -8.79%

C[N+](C)(C)CCOP(=O)([O-])OP(=O)([O-])OC[C@H]1O[C@@H](n2ccc(N)nc2=O)[C@H](O)[C@@H]1O.[Na+]
Plate 2 (% conversion) [5]: 36.80%
Plate 2 (% inhibition) [6]: -2.53%

Cl.Nc1ccn([C@@H]2O[C@H](CO)[C@@H](O)[C@@H]2O)c(=O)n1
Plate 1 (% inhibition) [1]: -2.68%
Plate 1 (% conversion) [2]: 36.77%

Cl.O[Si](CCCN1CCCCC1)(c1ccc(F)cc1)C1CCCCC1 (centres unmarked)
Plate 2 (% conversion) [5]: 40.91%
Plate 2 (% inhibition) [6]: -14.81%

C[C@@H](N)Cc1cnc[nH]1.Cl.Cl
Plate 2 (% conversion): 36.76%
Plate 2 (% inhibition) (20 µM): -2.41%

COC(=O)[C@@H](N)Cc1ccc(O)c(O)c1.Cl
Plate 2 (% conversion) [5]: 10.54%
Plate 2 (% inhibition) [6]: 75.90%

COc1cccc(C(=O)NCCN2CCN(c3ccc(Cl)cc3)CC2)c1
Plate 1 (% inhibition) [1]: -7.35%
Plate 1 (% conversion) [2]: 38.34%

CNCCc1c[nH]c2ccc(O)cc12.O=C(O)C(=O)O
Plate 3 (% conversion): 9.71%

Cc1ccc(S(=O)(=O)N[C@@H](Cc2ccccc2)C(=O)CCl)cc1
% inhibition (LOPAC Plate 4, compound at 20 uM): -4.78%
% conversion [4]: 38.10%

COC(=O)[C@@H](N)CCCN=C(N)N[N+](=O)[O-].Cl
Plate 3 (% conversion) [3]: 34.54%

CCCCCCN(CCCCCC)C(=O)Cc1c(-c2ccc(F)cc2)[nH]c2ccccc12
Plate 2 (% conversion): 35.52%
Plate 2 (% inhibition) (20 µM): 1.31%

Cc1ccc(S(=O)(=O)N[C@@H](CCCCN)C(=O)CCl)cc1.Cl
% conversion: 33.91%

Cl.NOCC(=O)O.NOCC(=O)O
Plate 1 (% inhibition) [1]: -6.07%
Plate 1 (% conversion) [2]: 37.91%

Nc1ncnc2c1ncn2[C@@H]1O[C@H](COP(=O)(O)OP(=O)(O)OP(=O)(O)OP(=O)(O)OC[C@H]2O[C@@H](n3cnc4c(N)ncnc43)[C@H](O)[C@@H]2O)[C@@H](O)[C@H]1O
Plate 2 (% conversion) [5]: 27.58%
Plate 2 (% inhibition) [6]: 25.01%

Cl.Cl.Fc1ccc([C@@H]2CCNC[C@H]2COc2ccc3c(c2)OCO3)cc1.Fc1ccc([C@@H]2CCNC[C@H]2COc2ccc3c(c2)OCO3)cc1.O
Plate 1 (% inhibition) [1]: -22.48%
Plate 1 (% conversion) [2]: 43.42%

Br.CCCN1CCc2cc(O)cc3c2[C@H]1Cc1ccc(O)c(O)c1-3
Plate 2 (% conversion) [5]: 6.67%
Plate 2 (% inhibition) [6]: 87.47%

Br.CN1CCc2cc(O)cc3c2[C@H]1Cc1ccc(O)c(O)c1-3
Plate 2 (% conversion) [5]: 6.73%
Plate 2 (% inhibition) [6]: 87.29%

C[C@H](O)[C@H](O)[C@H]1CNc2nc(N)[nH]c(=O)c2N1.Cl
% conversion [4]: 25.86%

Nc1ncnc2c1ncn2[C@@H]1O[C@H](COP(=O)(O)CP(=O)(O)OP(=O)([O-])[O-])[C@@H](O)[C@H]1O.[Li+].[Li+]
Plate 3 (% conversion) [3]: 17.86%

5-Bromo-2-deoxyuridine
Plate 1 (% conversion): 35.50%
Plate 1 (% inhibition): 1.12%

10058-F4
Plate 1 (% conversion): 30.76%
Plate 1 (% inhibition): 15.22%

COC(=O)C(N)Cc1ccc(Cl)cc1.Cl (racemic)
Plate 1 (% inhibition) [1]: 1.48%
Plate 1 (% conversion) [2]: 35.38%

CC(N)c1cccc(Cl)c1Cl.Cl (racemic)
Plate 2 (% conversion): 38.94%
Plate 2 (% inhibition) (20 µM): -8.91%

CC(N)(Cc1ccc(O)c(O)c1)C(=O)O (racemic)
Plate 3 (% conversion) [3]: 9.94%

CCCCCCCCCC(=O)NC(CN1CCOCC1)[C@H](O)c1ccccc1.Cl (mixture of isomers)
% conversion [4]: 45.09%

NC(Cc1cc(O)c(O)cc1O)C(=O)O (racemic) [6-Hydroxy-DL-DOPA, reference compound]
Inhibition at 20 µM [%]: 103.1%
Plate 2 (% conversion): 1.44%
Plate 2 (% inhibition) (20 µM): 103.09%

CN1[C@H]2C[C@H](OC(=O)[C@H](CO)c3ccccc3)C[C@@H]1[C@@H](O)C2 (racemic) [(+/-)-Anisodamine]
Plate 2 (% conversion): 36.39%
Plate 2 (% inhibition) (20 µM): -1.30%

NC(CP(=O)(O)O)C(=O)O (racemic) [(±)-2-Amino-3-phosphonopropionic acid]
Plate 1 (% conversion): 38.27%
Plate 1 (% inhibition): -7.14%

NC(CCP(=O)(O)O)C(=O)O (racemic) [(±)-2-Amino-4-phosphonobutyric acid]
Plate 1 (% conversion): 37.71%
Plate 1 (% inhibition): -5.48%

NC(CCCP(=O)(O)O)C(=O)O (racemic) [(±)-2-Amino-5-phosphonopentanoic acid]
Plate 1 (% conversion): 39.06%
Plate 1 (% inhibition) [1]: -9.50%

Br.Oc1cc2c(c(Cl)c1O)CCNCC2c1ccccc1 (racemic) [(±)-6-Chloro-PB hydrobromide, reference compound]
Inhibition at 20 µM [%] [7]: 98.8%
% conversion [4]: 2.77%

Br.CCCN(CCC)C1CCc2ccc(O)cc2C1 (racemic) [(±)-7-Hydroxy-DPAT hydrobromide]
Plate 2 (% conversion) [5]: 37.82%
Plate 2 (% inhibition) [6]: -5.57%

CC1CCN=C(N)S1.Cl (racemic) [(±)-AMT hydrochloride]
Plate 1 (% conversion): 36.89%
Plate 1 (% inhibition): -3.04%

NCC(CC(=O)O)c1ccc(Cl)cc1 (racemic) [(±)-Baclofen]
Plate 1 (% inhibition) [1]: -1.99%
Plate 1 (% conversion) [2]: 36.54%

COC(=O)C1=C(C)NC(C)=C([N+](=O)[O-])C1c1ccccc1C(F)(F)F (racemic) [(±)-Bay K 8644]
Plate 1 (% inhibition) [1]: -22.02%
Plate 1 (% conversion) [2]: 43.27%

CN(C)CCC(c1ccc(Br)cc1)c1ccccn1.O=C(O)/C=C\C(=O)O (racemic) [(±)-Brompheniramine maleate]
Plate 1 (% inhibition) [1]: 8.96%
Plate 1 (% conversion) [2]: 32.86%

CC(C)(C)NCC(O)COc1cccc2[nH]c(=O)[nH]c12.Cl (racemic) [(±)-CGP-12177A hydrochloride]
Plate 2 (% conversion) [5]: 36.58%
Plate 2 (% inhibition) [6]: -1.88%

Br.C=CCN1CCc2c(cc(O)c(O)c2Cl)C(c2ccccc2)C1 (racemic) [(±)-Chloro-APB hydrobromide, reference compound]
Inhibition at 20 µM [%] [7]: 95.8%
Plate 2 (% conversion) [5]: 3.87%
Plate 2 (% inhibition) [6]: 95.82%

CN(C)CCC(c1ccc(Cl)cc1)c1ccccn1.O=C(O)/C=C\C(=O)O (racemic) [(±)-Chlorpheniramine maleate]
Plate 1 (% inhibition) [1]: -6.31%
Plate 1 (% conversion) [2]: 37.99%

CNCC(O)c1ccc(O)c(O)c1.Cl (racemic) [(±)-Epinephrine hydrochloride]
Plate 2 (% conversion) [5]: 6.18%
Plate 2 (% inhibition) [6]: 88.94%
